Experimental data taken from patent US9585954B2, “Mucosal immunization” (ARIZONA BOARD OF REGENTS FOR AND ON BEHALF OF ARIZONA STATE …, priority 2009, dated 2017).

Test system: antigen-relevant immune responses to NVCP VLP
Set-up: species or system experimental animals
Conditions: in vivo

CCNCc1nc2c(N)nc3ccccc3c2n1CC(C)(C)O [gardiquimod]
antigen-relevant immune responses: much more robust immune responses
